Experimental findings from patent US12428377B2, “Sodium-hydrogen exchanger 3 inhibitor compounds” (Eli Lilly and Company, priority 2019, dated 2025) are described below.

For assay [1], the system named is male Sprague Dawley rats. As to the kind of experiment: Intestinal phosphate retention: percent radiolabeled dose recovered in gastrointestinal tract. The assay is classed as in vivo, rat. The conditions noted are these: Example 2 0.4 mg/kg, 4 h after radiolabeled phosphate. The method, then:
(§1) The purpose of this study is to investigate in rats the effect of Example 2, Compound A, and an Example 2/Compound A combination on phosphate absorption 15 min after dosing the compounds and the phosphate retained in the intestine 4.25 h after dosing the compounds. The latter is a measure of the oral phosphate load which is absorbed over an extended period.
(§2) Two vehicles are used in this study: 1) 1% HEC and 2) 0.46% poly-1-vinylpyrrolidone-co-vinyl acetate in water (PVP-VA vehicle). The vehicle control group in this study receives a 1:1 combination of the two vehicles.
The Example 2, Compound A and phosphate dosing solutions are prepared similarly as described above, except the doses are 0.4 mg/kg for Example 2 and 10 mg/kg for Compound A and they are prepared at a concentration where they would be dosed in a 5 mL/kg volume. The Example 2 and Compound A alone groups are mixed 1:1 with the vehicle of the other compound, while the Compound A and Example 2 are mixed 1:1 prior to dosing. The final dosing volume is 10 mL/kg in all cases.
4 h after the radiolabeled phosphate solution is dosed, stomach, small intestine, large intestine, and feces are collected, weighed and digested with 1N NaOH overnight at 37° C. Radioactivity in each fraction is measured by scintillation counting.
The percent dose recovered in gastrointestinal tract is defined as radioactivity recovered in stomach, small intestine, large intestine and feces compared to the amount dosed. Data is presented as mean±SEM with animal numbers equal to 8 for the groups. Statistical significance is determined by ANOVA with a Dunnett's comparison to the Example 2/Compound A combination using JMP 12.1.
The percent dose recovered in gastrointestinal tract data is further analyzed by a two-way ANOVA in JMP 12.1 to test for additivity of the effects of Example 2 and Compound A on inhibiting phosphate absorption. […] That is, the inhibitory effect of the combination is greater than the sum of the individual compound effects.

Assay [2] relates to male Sprague Dawley rats. As to the kind of experiment: Phosphate absorption 15 min after radiolabeled phosphate (Example 2, Compound A, combination). The assay is classed as in vivo, rat. The conditions noted are these: Example 2 0.4 mg/kg, plasma 15 min after radiolabeled phosphate, P=0.046 versus vehicle control. As to the method: Effect of Example 2 in Combination with an NPT2b Inhibitor (Compound A) on Phosphate Absorption and Intestinal Phosphate Retention in Rats
as §1, §2
The Example 2, Compound A and phosphate dosing solutions are prepared similarly as described above, except the doses are 0.4 mg/kg for Example 2 and 10 mg/kg for Compound A and they are prepared at a concentration where they would be dosed in a 5 mL/kg volume. […]
Male Sprague Dawley rats are fasted 4 h and then administered appropriate vehicles, 10 mg/kg Compound A, 0.4 mg/kg Example 2, or a combination of both compounds. […] Radioactivity in plasma is measured by scintillation counting and used to calculate the inhibition of phosphate absorption. […] Statistical significance is determined by ANOVA with a Dunnett's comparison to the Example 2/Compound A combination using JMP 12.1.

Assay [3] has as its target T1, NPT2b (Homo sapiens, UniProt O95436).
T1 sequence (O95436 1-690): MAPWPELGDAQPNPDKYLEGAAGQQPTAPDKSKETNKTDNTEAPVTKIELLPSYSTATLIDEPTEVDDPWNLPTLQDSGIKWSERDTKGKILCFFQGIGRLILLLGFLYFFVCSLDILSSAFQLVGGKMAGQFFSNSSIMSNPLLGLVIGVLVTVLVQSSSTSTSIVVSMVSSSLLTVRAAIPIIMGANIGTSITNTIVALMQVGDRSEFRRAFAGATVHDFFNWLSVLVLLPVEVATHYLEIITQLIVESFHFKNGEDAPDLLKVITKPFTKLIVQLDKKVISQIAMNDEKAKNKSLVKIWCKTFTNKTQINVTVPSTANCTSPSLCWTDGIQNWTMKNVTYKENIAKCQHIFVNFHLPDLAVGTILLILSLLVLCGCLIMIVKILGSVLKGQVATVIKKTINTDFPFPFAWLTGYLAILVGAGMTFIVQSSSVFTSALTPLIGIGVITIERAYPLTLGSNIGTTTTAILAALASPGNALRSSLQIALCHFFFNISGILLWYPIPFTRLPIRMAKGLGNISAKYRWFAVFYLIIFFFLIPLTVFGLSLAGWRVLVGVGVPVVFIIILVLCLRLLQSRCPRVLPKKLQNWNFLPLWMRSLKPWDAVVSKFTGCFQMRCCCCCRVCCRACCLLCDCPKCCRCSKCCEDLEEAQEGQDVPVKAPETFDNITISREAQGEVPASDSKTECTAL
As to the kind of experiment: NPT2b inhibition (selectivity).

pIC50: −log10 of the molar value. “And” between values parts separate entries of the source, which are not always exact repeats. Equal values may be shown once. A value given as a limit tells only on which side of the number the result lay.

By pIC50 is commonly meant the negative decadic logarithm of the IC50, by convention in mol/L. A low value points to a high IC50. `CN1Cc2c(Cl)cc(Cl)cc2[C@H](c2cccc(S(=O)(=O)NCCOCCOCCN/C(=N\C(N)=O)NCCCCN/C(=N/C(N)=O)NCCOCCOCCNS(=O)(=O)c3cccc([C@@H]4CN(C)Cc5c(Cl)cc(Cl)cc54)c3)c2)C1.Cl.Cl` [Example 2, [[4-[[N′-Carbamoyl-N-[2-[2-[2-[[3-[(4S)-6,8-dichloro-2-methyl-3,4-dihydro-1H-isoquinolin-4-yl]phenyl]sulfonylamino]ethoxy]ethoxy]ethyl]carbamimidoyl]amino]butylamino]-[2-[2-[2-[[3-[(4S)-6,8-dichloro-2-methyl-3,4-dihydro-1H-isoquinolin-4-yl]phenyl]sulfonylamino]ethoxy]ethoxy]ethylamino]methylene]urea dihydrochloride]: the “Percent Dose Recovered, Feces” value in assay [1] is given as less than 0.1%. In addition, in assay [1] (mean ± SEM), the “Percent Dose Recovered, Large Intestine” value turned out to be 18.16 ± 2.58%; the “Percent Dose Recovered, Small Intestine” value is 8.64 ± 0.32%; the “Percent Dose Recovered, Stomach” value is 3.9 ± 0.49%. For the same compound, in assay [1] (mean ± SEM, dihydrochloride, 0.4 mg/kg), the “Percent Dose Recovered, Total” value was 31% and 30.7 ± 2.43%. Further, in assay [2], the “Inhibition of phosphate absorption” value came to 29%. Also, the pIC50 in assay [3] is 4.23.
